According to article PMC3787887 (International Journal of Oncology, 2013):
Values joined by “and” are separate entries in the source; they are usually repeats but may differ in a detail not shown here. Equal values may be shown once.

What was measured:
[1] = Plasma and tumor drug levels at end of xenograft study; format: in vivo, nude mice
A549 cells [2] = assay: Cellular uptake of PS, A549; format: cell-based, human; details: 1 h; for increase in the intracellular accumulation of PS by transporter inhibitor: co-incubation with 100 μM PS
SW480 cells = assay: Cellular uptake of PS, SW480; format: cell-based, human; details: 1 h; for enhancement of the cellular accumulation of PS by transporter inhibitor: co-incubation with 100 μM PS
[3] = Pharmacokinetic study in mice, plasma PS metabolites by HPLC; format: in vivo
A549 cells [4] = assay: Cell growth inhibition; format: cell-based, human; details: PS 80 μM 24 h, curcumin 100 μM pretreatment
A549 cells [5] = assay: Apoptotic cell death analysis; format: cell-based, human; details: 20-h incubation
A549 xenografts = assay: A549 subcutaneous xenografts in nude mice; format: in vivo; details: for inhibition of human lung cancer xenografts (abstract, measure not named): PS 200 mg/kg, curcumin 500 mg/kg, oral gavage; for tumor volume at the end of the study: day 36, mean ± SEM; for reduction in tumor volume: end of study
[6] = tested on: human lung cancer xenografts; details: cited from earlier work
lung cancer = details: pre-clinical models of lung cancer; cited from earlier work
[7] = plasma metabolite after PS 200 mg/kg + curcumin 500 mg/kg in 10% Tween-80
[8] = plasma metabolite after PS 200 mg/kg + curcumin 500 mg/kg in micelles
[9] = plasma metabolite after single oral dose PS 200 mg/kg alone
[10] = PS 200 mg/kg/d, curcumin 500 mg/kg/d
[11] = vs control, PS 200 mg/kg/d, curcumin 500 mg/kg/d
[12] = curcumin 25 μM co-added with PS

## CSc1ccc(/C=C2/C(C)=C(CC(=O)O)c3cc(F)ccc32)cc1 [Sulindac sulfide, sulindac sulfide]
[1]
  level in A549 xenografts, PS plus curcumin group vs PS alone group: 3 fold higher

## CN(C)C(=O)CCSC(SCCC(=O)O)c1cccc(/C=C/c2ccc3ccc(Cl)cc3n2)c1 (stereo not shown) [MK571]
A549 cells [2]
  increase in the intracellular accumulation of PS by transporter inhibitor: 51%
SW480 cells
  enhancement of the cellular accumulation of PS by transporter inhibitor: 30%

## CC1=C(CC(=O)O)c2cc(F)ccc2/C1=C\c1ccc(S(C)(=O)=O)cc1 [Sulindac sulfone, sulindac sulfone]
[3]; [7]
  Cmax: 11.7 µM
  Tmax: 4 h
[3]; [8]
  Cmax: 7.7 µM
  Tmax: 4 h
[3]; [9]
  Cmax: 5.6 µM
  Tmax: 4 h
[1]
  level in A549 xenografts, PS plus curcumin group vs PS alone group: 5 fold higher

## COc1cc(/C=C/C(=O)CC(=O)/C=C/c2ccc(O[C@@H]3O[C@H](C(=O)O)[C@@H](O)[C@H](O)[C@H]3O)c(OC)c2)ccc1O [curcumin glucuronide]
[1]
  detection in A549 xenografts: Neither curcumin, nor its glucuronide, was detected
[1]; curcumin and PS plus curcumin groups
  level in the plasma: minute levels

## COc1ccc2c3c([nH]c2c1)[C@H](CC(C)C)N1C(=O)[C@H](CCC(=O)OC(C)(C)C)NC(=O)[C@@H]1C3 [Ko143]
A549 cells [2]
  increase in the intracellular accumulation of PS by transporter inhibitor: no effect

## CCOP(=O)(OCC)OCCCCOC(=O)CC1=C(C)/C(=C/c2ccc([S+](C)[O-])cc2)c2ccc(F)cc21 (stereo not shown) [PS, Phospho-sulindac]
A549 cells [4]
  reduction of cell viability: 30%
A549 cells [5]; PS 80 μM alone or with curcumin 100 μM
  percentage of apoptotic cells: 3.9%
A549 cells [5]; PS 100 μM alone or with curcumin 100 μM
  percentage of apoptotic cells: 5.0%
A549 xenografts
  inhibition of human lung cancer xenografts (abstract, measure not named): 25%
A549 xenografts; [10]
  adverse effects on the mice during the study: no apparent adverse effects
  body weight at sacrifice: 23 ± 1 g
  effect on the growth of A549 xenografts (in words): did not significantly inhibit
  tumor volume at the end of the study: 419±36 mm^3
A549 xenografts; [11]
  reduction in tumor volume: 19.6% and 20%
A549 xenografts; end-point, vs control, PS 200 mg/kg/d, curcumin 500 mg/kg/d
  reduction in tumor weight: 27%
[3]; any of the three treatments
  intact PS in plasma: not detected
[3]; single oral dose PS 200 mg/kg, curcumin 500 mg/kg
  total plasma AUC0–24 h (sum of all metabolites): 211 µM·h
[6]
  efficacy as a single agent in the treatment of human lung cancer xenografts: ineffective

## COc1ccc(CCN(C)CCCC(C#N)(c2ccc(OC)c(OC)c2)C(C)C)cc1OC (stereo not shown) [verapamil]
A549 cells [2]
  increase in the intracellular accumulation of PS by transporter inhibitor: no effect
SW480 cells
  enhancement of the cellular accumulation of PS by transporter inhibitor: 67%

## COc1cc(/C=C/C(=O)CC(=O)/C=C/c2ccc(O)c(OC)c2)ccc1O [curcumin, Curcumin, reference compound]
A549 cells [4]
  reduction of cell viability: 4%
A549 cells [2]; curcumin 5 μM co-added with PS
  increase of intracellular levels of PS: 23%
A549 cells [2]; [12]
  increase of intracellular levels of PS: 60%
SW480 cells; curcumin 5 μM co-added with PS
  increase of uptake of PS: 37%
SW480 cells; [12]
  increase of uptake of PS: 54%
A549 xenografts
  inhibition of human lung cancer xenografts (abstract, measure not named): no effect
A549 xenografts; [10]
  adverse effects on the mice during the study: no apparent adverse effects
  body weight at sacrifice: 23 ± 1 g
  effect on the growth of A549 xenografts (in words): did not significantly inhibit
  tumor volume at the end of the study: 599±98 mm^3
A549 xenografts; [11]
  reduction in tumor volume: no inhibition
Lung cancer
  efficacy as a single agent: < 30%

## CC1=C(CC(=O)O)c2cc(F)ccc2/C1=C\c1ccc([S+](C)[O-])cc1 (stereo not shown) [Sulindac, sulindac, reference compound]
[3]; PS co-administered with curcumin in 10% Tween-80
  increase of Cmax vs PS alone: 70%
[3]; PS co-administered with curcumin in nanoparticles
  increase of Cmax vs PS alone: 40%
[1]
  level in A549 xenografts, PS plus curcumin group vs PS alone group: 1 fold higher
